Here are results for 1 molecule from ChEMBL document CHEMBL3044624, “Cycloate, an inhibitor of fatty acid elongase, modulates the metabolism of very-long-side-chain alkylresorcinols in rye seedlings” (Pest Manag Sci, 2009).

For series [1], the system named is Secale cereale. Put plainly: Change in alkylresorcinol homologue composition in dry shoots of green Secale cereale (rye) seedlings grown from compound-treated seeds at 29 +/-2 degC assessed as C25:0 content at 46 uM by GC/EI-MS analysis (reference value: 0.03 mg/kg dry weight). The series is classed as functional.
Series [2] has as its system Secale cereale. Put plainly: Change in alkylresorcinol homologue composition in dry shoots of etiolated Secale cereale (rye) seedlings grown from compound-treated seeds at 22 +/-2 degC assessed as C25:0 content at 46 uM by GC/EI-MS analysis (reference value: 0.08 mg/kg dry weight). The series is classed as functional.
In series [3] the test system is Secale cereale. Put plainly: Change in alkylresorcinol homologue composition in dry shoots of etiolated Secale cereale (rye) seedlings grown from compound-treated seeds at 15 +/-2 degC assessed as C17:0 content at 46 uM by GC/EI-MS analysis (reference value: 3.25 mg/kg dry weight). Format: functional.
Series [4] has as its system Secale cereale. Put plainly: Change in alkylresorcinol homologue composition in dry shoots of green Secale cereale (rye) seedlings grown from compound-treated seeds at 22 +/-2 degC assessed as C15:0 content at 46 uM by GC/EI-MS analysis (reference value: 0.24 mg/kg dry weight). The series is classed as functional.
The subject of series [5] is Secale cereale. Put plainly: Change in alkylresorcinol content in dry shoots of etiolated Secale cereale (rye) seedlings grown from compound-treated seeds at 22 +/-2 degC at 46 uM by thin layer chromatography (reference value: 6.22 +/-0.09 mg/kg dry weight). The series is classed as functional.
Series [6] concerns Secale cereale. Put plainly: Change in alkylresorcinol homologue composition in dry shoots of green Secale cereale (rye) seedlings grown from compound-treated seeds at 15 +/-2 degC assessed as C25:0 content at 46 uM by GC/EI-MS analysis (reference value: 0.06 mg/kg dry weight). Format: functional.
Series [7] deals with Secale cereale. Put plainly: Toxicity against green Secale cereale (rye) seedlings assessed as dry biomass of seedling grown at 15 +/-2 degC at 46 uM measured at 5 days after compound-treated seed germination (reference value: 1.64 +/-0.03 g). The series is classed as organism-based. To be noted: in vivo, 120 h.
The test system of series [8] is Secale cereale. Put plainly: Change in alkylresorcinol homologue composition in dry shoots of green Secale cereale (rye) seedlings grown from compound-treated seeds at 15 +/-2 degC assessed as C19:0 content at 46 uM by GC/EI-MS analysis (reference value: 0.99 mg/kg dry weight). The series is classed as functional.
Series [9] has as its system Secale cereale. Put plainly: Change in alkylresorcinol homologue composition in dry shoots of green Secale cereale (rye) seedlings grown from compound-treated seeds at 15 +/-2 degC assessed as C19:1 content at 46 uM by GC/EI-MS analysis (reference value: 0.23 mg/kg dry weight). Format: functional.
In series [10] the test system is Secale cereale. Put plainly: Toxicity against green Secale cereale (rye) seedlings assessed as fresh biomass of seedling grown at 29 +/-2 degC at 46 uM measured at 5 days after compound-treated seed germination (reference value: 16.33 +/-0.24 g). Format: organism-based. To be noted: in vivo, 120 h.
Series [11] concerns Secale cereale. Put plainly: Change in alkylresorcinol homologue composition in dry shoots of etiolated Secale cereale (rye) seedlings grown from compound-treated seeds at 15 +/-2 degC assessed as C19:0 content at 46 uM by GC/EI-MS analysis (reference value: 1.77 mg/kg dry weight). The series is classed as functional.
Series [12] concerns Secale cereale. Put plainly: Change in alkylresorcinol homologue composition in dry shoots of green Secale cereale (rye) seedlings grown from compound-treated seeds at 29 +/-2 degC assessed as C21:0 content at 46 uM by GC/EI-MS analysis (reference value: 0.20 mg/kg dry weight). The series is classed as functional.
Series [13] deals with Secale cereale. Put plainly: Change in alkylresorcinol homologue composition in dry shoots of etiolated Secale cereale (rye) seedlings grown from compound-treated seeds at 22 +/-2 degC assessed as C23:0 content at 46 uM by GC/EI-MS analysis (reference value: 0.37 mg/kg dry weight). Format: functional.
The test system of series [14] is Secale cereale. Put plainly: Change in alkylresorcinol homologue composition in dry shoots of green Secale cereale (rye) seedlings grown from compound-treated seeds at 15 +/-2 degC assessed as C21:0 content at 46 uM by GC/EI-MS analysis (reference value: 0.41 mg/kg dry weight). The series is classed as functional.
The test system of series [15] is Secale cereale. Put plainly: Change in alkylresorcinol content in dry shoots of etiolated Secale cereale (rye) seedlings grown from compound-treated seeds at 15 +/-2 degC at 46 uM by thin layer chromatography (reference value: 8.13 +/-0.14 mg/kg dry weight). The series is classed as functional.
The test system of series [16] is Secale cereale. Put plainly: Toxicity against etiolated Secale cereale (rye) seedlings assessed as fresh biomass of seedling grown at 29 +/-2 degC at 46 uM measured at 5 days after compound-treated seed germination (reference value: 16.03 +/-0.67 g). Format: organism-based. To be noted: in vivo, 120 h.
The test system of series [17] is Secale cereale. Put plainly: Change in alkylresorcinol homologue composition in dry shoots of etiolated Secale cereale (rye) seedlings grown from compound-treated seeds at 29 +/-2 degC assessed as C19:0 content at 46 uM by GC/EI-MS analysis (reference value: 1.06 mg/kg dry weight). Format: functional.
Series [18] has as its system Secale cereale. Put plainly: Change in alkylresorcinol homologue composition in dry shoots of etiolated Secale cereale (rye) seedlings grown from compound-treated seeds at 15 +/-2 degC assessed as C25:0 content at 46 uM by GC/EI-MS analysis (reference value: 0.11 mg/kg dry weight). The series is classed as functional.
Series [19] relates to Secale cereale. Put plainly: Toxicity against etiolated Secale cereale (rye) seedlings assessed as dry biomass of seedling grown at 29 +/-2 degC at 46 uM measured at 5 days after compound-treated seed germination (reference value: 2.13 +/-0.03 g). Format: organism-based. The note with it: in vivo, 120 h.
The subject of series [20] is Secale cereale. Put plainly: Change in alkylresorcinol homologue composition in dry shoots of green Secale cereale (rye) seedlings grown from compound-treated seeds at 29 +/-2 degC assessed as C15:0 content at 46 uM by GC/EI-MS analysis (reference value: 0.11 mg/kg dry weight). The series is classed as functional.
Series [21] concerns Secale cereale. Put plainly: Change in alkylresorcinol homologue composition in dry shoots of etiolated Secale cereale (rye) seedlings grown from compound-treated seeds at 29 +/-2 degC assessed as C23:1 content at 46 uM by GC/EI-MS analysis. Format: functional.
Series [22] concerns Secale cereale. Put plainly: Change in alkylresorcinol homologue composition in dry shoots of etiolated Secale cereale (rye) seedlings grown from compound-treated seeds at 29 +/-2 degC assessed as C17:1 content at 46 uM by GC/EI-MS analysis (reference value: 0.05 mg/kg dry weight). The series is classed as functional.

Turning to `CCSC(=O)N(CC)C1CCCCC1` [CYCLOATE], the Activity in the series on Secale cereale [1] was 0.2 mg/kg; with Secale cereale [2], 0.06 mg/kg; with Secale cereale [3], 5.74 mg/kg; in the series on Secale cereale [4], 0.2 mg/kg; in the series with Secale cereale [5], 2.94 mg/kg; in the series on Secale cereale [6], 0.09 mg/kg. The Activity was determined as 1.12 g in the series with Secale cereale [7]; 1.45 mg/kg in the series with Secale cereale [8]; 0.37 mg/kg in the series on Secale cereale [9]; 7.02 g in the series with Secale cereale [10]; 2.64 mg/kg with Secale cereale [11]; 1.34 mg/kg with Secale cereale [12]. Besides, the Activity is 0.3 mg/kg with Secale cereale [13]; 0.55 mg/kg in the series with Secale cereale [14]; 13.11 mg/kg with Secale cereale [15]; 21 g with Secale cereale [16]; 3.74 mg/kg in the series with Secale cereale [17]; 0.1 mg/kg with Secale cereale [18]. Besides, the Activity in the series with Secale cereale [19] was 2.32 g; with Secale cereale [20] it was 0.53 mg/kg; in the series with Secale cereale [21], 0.07 mg/kg; in the series with Secale cereale [22] it was 0.98 mg/kg.
